{"source": "patent US6911474B2", "about": "“Methods, compounds, and compositions for reducing body fat and modulating fatty acid metabolism” (The Regents of the University of California, priority 2001, dated 2005)", "key": {"[1]": {"experiment": "Acute food intake in 24-h food-deprived rats after i.p. administration", "format": "in vivo, rat", "protocol": "(§1) Feeding experiments. Acute experiments. Food intake was measured in 24-h food-deprived rats (Navarro et al., J. Neurochem., 67:1982-1991 (1996)), administering drugs 15 min before food presentation. Subchronic experiments. Ad libitum fed rats received vehicle injections for three days. On day four, the animals were divided in two equal groups and gave them daily injections of vehicle or OEA (5 mg per kg at 1900 h) for 7 consecutive days, while measuring body weight, food intake and water intake.\nThe effects of systemically administered OEA on food intake in rats can be assessed using a 24 h fast. […] To define the selectivity of this response, various OEA analogs were evaluated for their ability to produce hypophagia."}, "[2]": {"experiment": "Food intake after intracerebroventricular administration to 24 h food-deprived rats", "format": "in vivo, rat", "protocol": "as §1"}, "[3]": {"experiment": "Subchronic administration: food intake, body weight and water intake", "format": "in vivo, rat", "details": "5 mg per kg, i.p., daily for seven days", "protocol": "as §1\nOEA was subchronically administered to rats."}, "[4]": {"biological_target": "T1, cannabinoid receptors (rat brain membranes) (Rattus norvegicus, UniProt P20272)", "T1 construct": "from tissue; host or cells: rat brain membranes", "T1 sequence (P20272 whole entry)": "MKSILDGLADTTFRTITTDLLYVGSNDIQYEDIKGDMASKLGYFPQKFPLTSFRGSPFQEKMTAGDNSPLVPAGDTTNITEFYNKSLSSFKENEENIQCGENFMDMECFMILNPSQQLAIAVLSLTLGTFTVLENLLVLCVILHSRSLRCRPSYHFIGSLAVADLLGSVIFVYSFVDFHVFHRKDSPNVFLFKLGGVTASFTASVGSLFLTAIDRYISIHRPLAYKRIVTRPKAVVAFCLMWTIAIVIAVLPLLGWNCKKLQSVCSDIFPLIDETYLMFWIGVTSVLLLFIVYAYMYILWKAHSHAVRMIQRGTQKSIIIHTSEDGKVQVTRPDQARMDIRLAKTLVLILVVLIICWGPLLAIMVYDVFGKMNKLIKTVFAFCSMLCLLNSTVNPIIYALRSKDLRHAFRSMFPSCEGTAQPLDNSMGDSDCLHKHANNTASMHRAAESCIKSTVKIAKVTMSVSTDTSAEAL", "experiment": "Displacement of cannabinoid binding to rat brain membranes in vitro"}, "c-fos mRNA": {"system": "c-fos mRNA", "experiment": "c-fos mRNA in situ hybridization in brain", "format": "in vivo, rat", "details": "10 mg per kg, i.p., 60 min", "protocol": "In situ hybridization. Rats were accustomed to the handling and injection procedure for five days. On day six, vehicle or drug OEA (10 mg per kg, i.p.), or oleic acid (10 mg per kg) was administered, and the rats killed 60 min later by decapitation under anesthesia. In situ hybridization analyses were conducted using ^35S-labeled cRNA probes for c-fos (Guthrie et al., Proc. Natl. Acad. Sci. U.S.A., 90:3329-3333 (1993)) and choline acetyl transferase (ChAT) (Lauterbom et al., Brain Res. Mol. Brain Res., 17:59-69 (1993)). Average hybridization densities were determined from at least three tissue sections per rat. Statistical significance was evaluated using one-way analysis of variance (ANOVA) followed by the Tukey-Kramer post-hoc test for paired comparisons."}, "[5]": {"experiment": "Plasma hormone levels by radioimmunoassay (HPA axis)", "format": "in vivo, rat", "details": "Table 3", "protocol": "Blood chemistry. Plasma β-hydroxybutyrate and glycerol were measured using commercial kits (Sigrna, St. Louis, Mo.). Plasma prolactin, corticosterone and luteinizing hormone were quantified by radioimmunoassay (Navarro et al., Neuroreport, 8:491-496 (1997))."}, "Acute water intake": {"experiment": "Acute water intake", "format": "in vivo, rat", "details": "5 or 20 mg per kg; FIG. 4d", "protocol": "FIG. 4. Oleoylethanolamide/[…] selectively suppresses food intake: […] Vehicle alone (70% DMSO in saline, 1 ml per kg, i.p.) had no significant effect on acute food intake; (b) time course of the hypophagic effects of oleoylethanolamide (20 mg per kg, i.p.) (squares) or vehicle (lozenges) on food intake. […] Empty bars, water intake; filled bars, saccharin intake. Effects of vehicle (V) or oleoylethanolamide (5 or 20 mg per kg) on: (d) water intake (expressed in ml per 4 h); (e) body temperature; (f) latency to jump in the hot plate analgesia test; (g) percent time spent in open arms in the elevated plus maze anxiety test; (h) number of crossings in the open field activity test; (i) number of operant responses for food. Asterisk, P<0.05, n=8-12 per group."}, "[6]": {"experiment": "Operant responses for food", "format": "in vivo, rat", "details": "at a dose substantially higher than those required to produce hypophagia; FIG. 4i", "excerpt": "Operant responses for food. Rats were trained to lever press for food on a fixed ratio 1 (FR1) schedule of reinforcement, while food-restricted at 20 g of chow per rat per day (Rodriguez de Fonseca et al., Acta Pharmacol. Sin., 20:1109-1114 (1999)). Once stable responding was achieved, the animals were trained to acquire an FR5, time out 2-min schedule of food reinforcement and kept in limited access to food. When a stable baseline was obtained, the animals were used to test the effects of vehicle or OEA (1, 5 or 20 mg per kg) administered 15 min before lever presentation. Test duration was 60 min."}, "Hepatocyte": {"system": "Hepatocyte", "experiment": "[14C]oleate oxidation to ketone bodies in hepatocytes", "format": "cell-based, rat", "protocol": "Compounds can also be assayed for their effect on fatty acid metabolism. The effect of the candidate compound on fatty acid metabolism can be measured by measurements of fatty acid oxidation in primary cultures of liver cells. Hepatocytes may be used to determine the rate of oleate oxidation to ketone bodies and carbon dioxide. Such cells can be isolated from adult rat liver by enzymatic digestion as described by Beynen et al. in Diabetes 28:828 (1979). Cells typically are cultured in suspension and incubated in Krebs-Henseleit's bicarbonate medium supplemented with bovine serum albumin and glucose as described by Guzmán & Geelen, Biochem. J. 287:487(1992). The protein concentration of the cultured cells can be determined and cells seeded in 2 ml media so that 4-6 mg protein per ml is present in the reaction mixture. Cells can be incubated for 10 minutes at 37° C. with [^14C]-oleic acid (Arnersham), in the presence or absence of 10 μM OEA, reactions may be stopped with 200 μl 2M perchloric acid and acid-soluble products extracted with chloroform/methanol/water (5:1:1, vol:vol:vol). The aqueous phase can be removed and washed twice more. Protein concentration can be determined using a Lowry assay. The rate of oleate conversion into ketone bodies may be expressed as rnmol of oleate oxidized per hour per mg protein and may be determined using liquid scintillation counting. […]"}, "Soleus muscle": {"system": "Soleus muscle", "experiment": "[14C]oleate oxidation to CO2 in soleus muscle", "format": "cell-based, rat"}, "Adipocyte": {"system": "Adipocyte", "experiment": "Lypolysis (glycerol release) in adipocytes", "format": "cell-based, rat"}}, "note": "Values joined by “and” are separate entries in the source; they are usually repeats but may differ in a detail not shown here. Equal values may be shown once.", "data": [{"smiles": "CCCCCCCC/C=C\\CCCCCCCC(=O)NCCO", "note": "[OEA, Oleoylethanolamide]", "values": [{"measurement": "half-maximally effective dose for hypophagia", "setting": "[1]", "result": 5, "unit": "mg per kg"}, {"measurement": "suppression of food intake (hypophagia)", "setting": "[1]; 24-h food-deprived rats, 15 min before food presentation, FIG. 4a,b", "result": "dose- and time-dependent suppression"}, {"measurement": "effect on food intake after direct injection into the brain ventricles", "setting": "[2]", "result": "ineffective"}, {"measurement": "food intake, 60 min", "setting": "[2]; 0.4 μg per animal", "result": "4.8 ± 0.4"}, {"measurement": "food intake, 120 min", "setting": "[2]; 0.4 μg per animal", "result": "6.6 ± 0.4"}, {"measurement": "food intake, 240 min", "setting": "[2]; 0.4 μg per animal", "result": "8.4 ± 0.4"}, {"measurement": "food intake, 60 min", "setting": "[2]; 2 μg per animal", "result": "4.9 ± 0.4"}, {"measurement": "food intake, 120 min", "setting": "[2]; 2 μg per animal", "result": "6.6 ± 0.6"}, {"measurement": "food intake, 240 min", "setting": "[2]; 2 μg per animal", "result": "8.7 ± 0.5"}, {"measurement": "food intake, 60 min", "setting": "[2]; 10 μg per animal", "result": "5.9 ± 0.2"}, {"measurement": "food intake, 120 min", "setting": "[2]; 10 μg per animal", "result": "8.1 ± 0.4"}, {"measurement": "food intake, 240 min", "setting": "[2]; 10 μg per animal", "result": "9.6 ± 0.7"}, {"measurement": "cumulative food intake", "setting": "[3]; FIG. 5a", "result": "small, but significant decrease"}, {"measurement": "weight gain", "setting": "[3]; FIG. 5b,c", "result": "profound inhibition"}, {"measurement": "water intake", "setting": "[3]; FIG. 5d", "result": "did not affect"}, {"measurement": "displacement of cannabinoid binding", "setting": "[4]", "result": "did not displace"}, {"measurement": "c-fos expression in other brain regions", "setting": "c-fos mRNA", "result": "not significantly affected"}, {"measurement": "c-fos mRNA levels in the PVN, supraoptic nucleus and NST", "setting": "c-fos mRNA", "result": "highly localized increase"}, {"measurement": "activity of the hypothalamus-pituitary-adrenal (HPA) axis", "setting": "[5]", "result": "did not alter"}, {"measurement": "water intake", "setting": "Acute water intake", "result": "did not alter"}, {"measurement": "operant responses for food", "setting": "[6]", "result": "reduced"}, {"measurement": "Stimulatory effect of 10 μM OEA (%) on [14C]oleate oxidation to ketone bodies", "setting": "Hepatocyte; Hepatocyte, 10 μM, 10 min incubation", "result": "21+−6% and 21 ± 6%"}, {"measurement": "fatty acid oxidation in words", "setting": "Hepatocyte; primary cultures of liver cells", "result": "significantly stimulates"}, {"measurement": "Stimulatory effect of 10 μM OEA (%) on [14C]oleate oxidation to CO2", "setting": "Soleus muscle; Soleus muscle, 10 μM, 30 min incubation", "result": "36 ± 10", "unit": "%"}, {"measurement": "fatty acid oxidation in words", "setting": "Soleus muscle; primary cultures of skeletal muscle (soleus)", "result": "significantly stimulates"}, {"measurement": "Stimulatory effect of 10 μM OEA (%) on lypolysis (glycerol release)", "setting": "Adipocyte; Adipocyte, 10 μM, 30 min incubation", "result": "38 ± 16", "unit": "%"}, {"measurement": "mobilization of triacylglycerol stores", "setting": "Adipocyte; primary white adipose tissue cells", "result": "significant mobilization"}]}]}
